Experimental data taken from patent US20200022370A1, “MICROBIOCIDAL OXADIAZOLE DERIVATIVES” (SYNGENTA PARTICIPATIONS AG, priority 2016, published 2020).

Assays:
[1] = tested on: Glomerella lacenarium (Colletotrichum lacenarium); test: Glomerella lacenarium (Colletotrichum lacenarium) liquid culture / cucumber / preventative (anthracnose); type: cell-based; conditions: 20 ppm, liquid culture in PDB, 24° C., inhibition of growth measured photometrically 3 to 4 days after application, vs untreated, read-out: disease control
In short: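 Cryopreserved conidia in potato dextrose broth were added to test compound in a 96-well microtiter plate and incubated at 24 °C. Growth inhibition read photometrically 3–4 days after application, as percent activity versus untreated check.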

[2] = tested on: Puccinia recondita f. Sp. Tritici; test: Puccinia recondita f. sp. tritici / wheat / leaf disc preventative (brown rust); type: in vivo; conditions: foliar, 200 ppm in the applied formulation, wheat leaf segments cv. Kanzler, inoculated 1 day after application, vs untreated, 7 to 9 days after application, read-out: disease control
Protocol: (§1) Leaf disks or leaf segments of various plant species are cut from plants grown in a greenhouse. The cut leaf disks or segments are placed in multiwell plates (24-well format) onto water agar. The leaf disks are sprayed with a test solution before (preventative) or after (curative) inoculation. Compounds to be tested are prepared as DMSO solutions (max. 10 mg/ml) which are diluted to the appropriate concentration with 0.025% Tween20 just before spraying. The inoculated leaf disks or segments are incubated under defined conditions (temperature, relative humidity, light, etc.) according to the respective test system. A single evaluation of disease level is carried out 3 to 14 days after inoculation, depending on the pathosystem. Percent disease control relative to the untreated check leaf disks or segments is then calculated.
Example 1: Fungicidal Activity Against Puccinia recondita f. Sp. Tritici/Wheat/Leaf Disc Preventative (Brown Rust)
Wheat leaf segments cv. Kanzler were placed on agar in multiwell plates (24-well format) and sprayed with the Formulated test compound diluted in water. The leaf disks were inoculated with a spore suspension of the fungus 1 day after application. The inoculated leaf segments were incubated at 19° C. and 75% relative humidity (rh) under a light regime of 12 hours light/12 hours darkness in a climate cabinet and the activity of a compound was assessed as percent disease control compared to untreated when an appropriate level of disease damage appears in untreated check leaf segments (7 to 9 days after application).
(§2) The following compounds at 200 ppm in the applied Formulation give at least 80% disease control in this test when compared to untreated control leaf disks under the same conditions, which show extensive disease development.

Phakopsora pachyrhizi = Phakopsora pachyrhizi / soybean / leaf disc preventative (Asian soybean rust); type: in vivo; conditions: foliar, 200 ppm in the applied formulation, soybean leaf disks, inoculated one day after application, vs untreated, 12 to 14 days after application, read-out: disease control
Protocol: as §1
Example 3: Fungicidal Activity Against Phakopsora pachyrhizi/Soybean/Leaf Disc Preventative (Asian Soybean Rust)
Soybean leaf disks are placed on water agar in multiwell plates (24-well format) and sprayed with the Formulated test compound diluted in water. One day after application leaf discs are inoculated by spraying a spore suspension on the lower leaf surface. After an incubation period in a climate cabinet of 24-36 hours in darkness at 20° C. and 75% rh leaf disc are kept at 20° C. with 12 h light/day and 75% rh. The activity of a compound is assessed as percent disease control compared to untreated when an appropriate level of disease damage appears in untreated check leaf disks (12 to 14 days after application).
as §2

[3] = tested on: Puccinia recondita f. Sp. Tritici; test: Puccinia recondita f. sp. tritici / wheat / leaf disc curative (brown rust); type: in vivo; conditions: foliar, 200 ppm in the applied formulation, wheat leaf segments cv. Kanzler, compound applied 1 day after inoculation, vs untreated, 6 to 8 days after application, read-out: disease control
Protocol: as §1
Example 2: Fungicidal Activity Against Puccinia recondita f. sp. tritici/Wheat/Leaf Disc Curative (Brown Rust)
Wheat leaf segments cv. Kanzler are placed on agar in multiwell plates (24-well format). The leaf segments are then inoculated with a spore suspension of the fungus. Plates were stored in darkness at 19° C. and 75% relative humidity. The Formulated test compound diluted in water was applied 1 day after inoculation. The leaf segments were incubated at 19° C. and 75% relative humidity under a light regime of 12 hours light/12 hours darkness in a climate cabinet and the activity of a compound was assessed as percent disease control compared to untreated when an appropriate level of disease damage appears in untreated check leaf segments (6 to 8 days after application).
as §2

O=C(Nc1ccc(-c2noc(C(F)(F)F)n2)nc1)c1ccc(-n2ccnc2)cc1 [Compound 1.54, 4-imidazol-1-yl-N-[6-[5-(trifluoromethyl)-1,2,4-oxadiazol-3-yl]-3-pyridyl]benzamide]
≥ 80%: inhibition of growth at 20 ppm [1] | pest or weed control at 200 ppm [2] | pest or weed control at 200 ppm (Phakopsora pachyrhizi)

COc1ccc(CC(=O)Nc2ccc(-c3noc(C(F)(F)F)n3)cc2)cc1 [Compound 1.71, 2-(4-methoxyphenyl)-N-[4-[5-(trifluoromethyl)-1,2,4-oxadiazol-3-yl]phenyl]acetamide]
≥ 80%: inhibition of growth at 20 ppm [1] | pest or weed control at 200 ppm [2] | pest or weed control at 200 ppm (Phakopsora pachyrhizi)

O=C(Nc1ccc(-c2noc(C(F)(F)F)n2)cc1)C1CCCCO1 (stereo not drawn) [Compound 1.72, N-[4-[5-(trifluoromethyl)-1,2,4-oxadiazol-3-yl]phenyl] tetrahydropyran-2-carboxamide]
≥ 80%: inhibition of growth at 20 ppm [1] | pest or weed control at 200 ppm [2] | pest or weed control at 200 ppm (Phakopsora pachyrhizi)

O=C(CCO)Nc1ccc(-c2noc(C(F)(F)F)n2)cc1 [Compound 1.75, 3-hydroxy-N-[4-[5-(trifluoromethyl)-1,2,4-oxadiazol-3-yl]phenyl] propanamide]
≥ 80%: inhibition of growth at 20 ppm [1] | pest or weed control at 200 ppm [2] | pest or weed control at 200 ppm [3]

CSCC(C)C(=O)Nc1ccc(-c2noc(C(F)(F)F)n2)cc1 (stereo not drawn) [Compound 1.77, 2-methyl-3-methylsulfanyl-N-[4-[5-(trifluoromethyl)-1,2,4-oxadiazol-3-yl]phenyl] propanamide]
≥ 80%: inhibition of growth at 20 ppm [1] | pest or weed control at 200 ppm [2] | pest or weed control at 200 ppm [3]

CC(C)CC(=O)Nc1ccc(-c2noc(C(F)(F)F)n2)cc1 [Compound 1.85, 3-methyl-N-[4-[5-(trifluoromethyl)-1,2,4-oxadiazol-3-yl]phenyl]butanamide]
≥ 80%: inhibition of growth at 20 ppm [1] | pest or weed control at 200 ppm [2] | pest or weed control at 200 ppm (Phakopsora pachyrhizi)

CCCC(C)C(=O)Nc1ccc(-c2noc(C(F)(F)F)n2)cc1 (stereo not drawn) [Compound 1.86, 2-methyl-N-[4-[5-(trifluoromethyl)-1,2,4-oxadiazol-3-yl]phenyl] pentanamide]
≥ 80%: inhibition of growth at 20 ppm [1] | pest or weed control at 200 ppm [2] | pest or weed control at 200 ppm (Phakopsora pachyrhizi)

Cc1ccnn1CC(=O)Nc1ccc(-c2noc(C(F)(F)F)n2)cc1 [Compound 1.87, 2-(5-methylpyrazol-1-yl)-N-[4-[5-(trifluoromethyl)-1,2,4-oxadiazol-3-yl]phenyl]acetamide]
≥ 80%: inhibition of growth at 20 ppm [1] | pest or weed control at 200 ppm [2] | pest or weed control at 200 ppm [3]

CC1CC1C(=O)Nc1ccc(-c2noc(C(F)(F)F)n2)cc1 (stereo not drawn) [Compound 1.90, 2-methyl-N-[4-[5-(trifluoromethyl)-1,2,4-oxadiazol-3-yl]phenyl]cyclo-propanecarboxamide]
≥ 80%: inhibition of growth at 20 ppm [1] | pest or weed control at 200 ppm [2] | pest or weed control at 200 ppm (Phakopsora pachyrhizi)

CCCCC(=O)Nc1ccc(-c2noc(C(F)(F)F)n2)cc1 [Compound 1.92, N-[4-[5-(trifluoromethyl)-1,2,4-oxadiazol-3-yl]phenyl]pentanamide]
≥ 80%: inhibition of growth at 20 ppm [1] | pest or weed control at 200 ppm [2] | pest or weed control at 200 ppm (Phakopsora pachyrhizi)

CC(C)OCC(=O)Nc1ccc(-c2noc(C(F)(F)F)n2)cc1 [Compound 1.101, 2-isopropoxy-N-[4-[5-(trifluoromethyl)-1,2,4-oxadiazol-3-yl]phenyl]acetamide]
≥ 80%: inhibition of growth at 20 ppm [1] | pest or weed control at 200 ppm [2] | pest or weed control at 200 ppm [3]

O=C(Cn1cccn1)Nc1ccc(-c2noc(C(F)(F)F)n2)cc1 [Compound 1.104, 2-pyrazol-1-yl-N-[4-[5-(trifluoromethyl)-1,2,4-oxadiazol-3-yl]phenyl]acetamide]
≥ 80%: inhibition of growth at 20 ppm [1] | pest or weed control at 200 ppm [2] | pest or weed control at 200 ppm [3]

O=C(CCc1ccncc1)Nc1ccc(-c2noc(C(F)(F)F)n2)cc1 [Compound 1.107, 3-(4-pyridyl)-N-[4-[5-(trifluoromethyl)-1,2,4-oxadiazol-3-yl]phenyl] propanamide]
≥ 80%: inhibition of growth at 20 ppm [1] | pest or weed control at 200 ppm [2] | pest or weed control at 200 ppm [3]

O=C(Nc1ccc(-c2noc(C(F)(F)F)n2)cc1)C1CCOC1 (stereo not drawn) [Compound 1.116, N-[4-[5-(trifluoromethyl)-1,2,4-oxadiazol-3-yl]phenyl] tetrahydrofuran-3-carboxamide]
≥ 80%: inhibition of growth at 20 ppm [1] | pest or weed control at 200 ppm [2] | pest or weed control at 200 ppm [3]

O=C(Nc1ccc(-c2noc(C(F)(F)F)n2)cc1)C1CC1(F)F (stereo not drawn) [Compound 1.118, 2,2-difluoro-N-[4-[5-(trifluoromethyl)-1,2,4-oxadiazol-3-yl]phenyl]cyclo-propanecarboxamide]
≥ 80%: inhibition of growth at 20 ppm [1] | pest or weed control at 200 ppm [2] | pest or weed control at 200 ppm (Phakopsora pachyrhizi)

O=C(CC1CC1(F)F)Nc1ccc(-c2noc(C(F)(F)F)n2)cc1 (stereo not drawn) [Compound 1.124, 2-(2,2-difluorocyclopropyl)-N-[4-[5-(trifluoromethyl)-1,2,4-oxadiazol-3-yl]phenyl]acetamide]
≥ 80%: inhibition of growth at 20 ppm [1] | pest or weed control at 200 ppm [2] | pest or weed control at 200 ppm (Phakopsora pachyrhizi)

O=C(CC(F)(F)F)Nc1ccc(-c2noc(C(F)(F)F)n2)cc1 [Compound 1.125, 3,3,3-trifluoro-N-[4-[5-(trifluoromethyl)-1,2,4-oxadiazol-3-yl]phenyl] propanamide]
≥ 80%: inhibition of growth at 20 ppm [1] | pest or weed control at 200 ppm [2] | pest or weed control at 200 ppm (Phakopsora pachyrhizi)

CON(C)C(=O)N(C)c1ccc(-c2noc(C(F)(F)F)n2)cc1 [Compound 1.126, 1-methoxy-1,3-dimethyl-3-[4-[5-(trifluoromethyl)-1,2,4-oxadiazol-3-yl]phenyl]urea]
≥ 80%: inhibition of growth at 20 ppm [1] | pest or weed control at 200 ppm [2] | pest or weed control at 200 ppm [3]

COCC(=O)N(C)c1ccc(-c2noc(C(F)(F)F)n2)cc1 [Compound 1.129, 2-methoxy-N-methyl-N-[4-[5-(trifluoromethyl)-1,2,4-oxadiazol-3-yl]phenyl]acetamide]
≥ 80%: inhibition of growth at 20 ppm [1] | pest or weed control at 200 ppm [2] | pest or weed control at 200 ppm [3]

CN(C(=O)C1CCOC1)c1ccc(-c2noc(C(F)(F)F)n2)cc1 (stereo not drawn) [Compound 1.135, N-methyl-N-[4-[5-(trifluoromethyl)-1,2,4-oxadiazol-3-yl]phenyl] tetrahydrofuran-3-carboxamide]
≥ 80%: inhibition of growth at 20 ppm [1] | pest or weed control at 200 ppm [3] | pest or weed control at 200 ppm (Phakopsora pachyrhizi)

CC1(C(=O)Nc2ccc(-c3noc(C(F)(F)F)n3)cc2)CC1 [Compound 2.11, 1-methyl-N-[4-[5-(trifluoromethyl)-1,2,4-oxadiazol-3-yl]phenyl] cyclopropane-carboxamide]
≥ 80%: inhibition of growth at 20 ppm [1] | pest or weed control at 200 ppm [2] | pest or weed control at 200 ppm (Phakopsora pachyrhizi)

O=C(Nc1ccc(-c2noc(C(F)(F)F)n2)cc1)C1CC1 [Compound 2.15, N-[4-[5-(trifluoromethyl)-1,2,4-oxadiazol-3-yl]phenyl] cyclopropane-carboxamide]
≥ 80%: inhibition of growth at 20 ppm [1] | pest or weed control at 200 ppm [2] | pest or weed control at 200 ppm [3]

CC(=O)N(C)c1ccc(-c2noc(C(F)(F)F)n2)cc1 [Compound 2.18, N-methyl-N-[4-[5-(trifluoromethyl)-1,2,4-oxadiazol-3-yl]phenyl] acetamide]
≥ 80%: inhibition of growth at 20 ppm [1] | pest or weed control at 200 ppm [2] | pest or weed control at 200 ppm [3]
